Source: paper PMC6400584, “Activation mechanism of ATP-sensitive K^+ channels explored with real-time nucleotide binding” (eLife, 2019)

How the values were obtained:
[1] = target: T1, SUR1/Kir6.2-G334D (Homo sapiens, UniProt Q09428); experiment: Current activation in inside-out patches; type: biochemical
T1 construct: expressed in transfected cells; host or cells: HEK-293T
Method: (§1) Currents were recorded from inside-out membrane patches excised from transfected HEK-293T cells. Pipettes were pulled to a resistance of 1–5 MΩ and filled with an extracellular solution containing (in mM) 140 KCl, 1.2 MgCl2, 2.6 CaCl2, and 10 HEPES, pH 7.4 or 140 KCl, 1 EGTA, 10 HEPES, pH 7.3. The intracellular (bath) solutions contained either (in mM) 107 KCl, 2 MgCl2, 1 CaCl2, 10 EGTA, and 10 HEPES, pH 7.2 for experiments showing nucleotide-dependent activation or 140 KCl, 1 EDTA, 1 EGTA, 10 HEPES pH 7.3 for experiments showing nucleotide-dependent inhibition. Nucleotides were added as indicated. Patches were perfused with an 8-channel µFlow perfusion system. Data were acquired at a holding potential of −60 mV using an Axopatch 200B amplifier and Digidata 1322A digitizer with pClamp 9.0 software (Molecular Devices). Currents were digitized at 10 kHz and low-pass filtered at 1 kHz. KATP channels run down in excised patches (reviewed by Proks et al.) ([Proks et al., 2016]). For inhibitory concentration-response relationships, rundown was corrected by alternating test nucleotide solutions with nucleotide-free (control) solutions and expressing the test currents as a fraction of the average of the control currents before and after the test solution. […]

[2] = target: T1, SUR1/Kir6.2-G334D; design: method as in Proks et al., 2010; conditions: ref Proks et al., 2010; read-out: EC50 for activation of currents; cited from earlier work
[3] = system: SUR1-Y1353*/Kir6.2-G334D; experiment: Currents in inside-out patches; type: biochemical, Homo sapiens; conditions: co-expressed with pANAP and pERF1-E55D
Method: as §1

[4] = system: SUR1/Kir6.2-G334D with K1384A (K2A) in NBS2; design: method as in Proks et al., 2014; conditions: ref Proks et al., 2014; cited from earlier work
[5] = target: T2, 3xFLAG_SUR1/Kir6.2 (Homo sapiens, UniProt Q09428+Q14654, INS1042[…]); experiment: Current response to 100 μM nucleotide relative to nucleotide-free solution, inside-out patches; type: biochemical
T2 construct: expressed in transfected cells; host or cells: HEK-293T
Method: as §1

[6] = target: T3, SUR1-Y1353^stop/Kir6.2 (Homo sapiens, UniProt Q09428+Q14654); experiment: as above; type: biochemical; conditions: truncated SUR1-Y1353^stop
T3 construct: expressed in transfected cells; host or cells: HEK-293T
T3 sequence (Q09428 1-1352): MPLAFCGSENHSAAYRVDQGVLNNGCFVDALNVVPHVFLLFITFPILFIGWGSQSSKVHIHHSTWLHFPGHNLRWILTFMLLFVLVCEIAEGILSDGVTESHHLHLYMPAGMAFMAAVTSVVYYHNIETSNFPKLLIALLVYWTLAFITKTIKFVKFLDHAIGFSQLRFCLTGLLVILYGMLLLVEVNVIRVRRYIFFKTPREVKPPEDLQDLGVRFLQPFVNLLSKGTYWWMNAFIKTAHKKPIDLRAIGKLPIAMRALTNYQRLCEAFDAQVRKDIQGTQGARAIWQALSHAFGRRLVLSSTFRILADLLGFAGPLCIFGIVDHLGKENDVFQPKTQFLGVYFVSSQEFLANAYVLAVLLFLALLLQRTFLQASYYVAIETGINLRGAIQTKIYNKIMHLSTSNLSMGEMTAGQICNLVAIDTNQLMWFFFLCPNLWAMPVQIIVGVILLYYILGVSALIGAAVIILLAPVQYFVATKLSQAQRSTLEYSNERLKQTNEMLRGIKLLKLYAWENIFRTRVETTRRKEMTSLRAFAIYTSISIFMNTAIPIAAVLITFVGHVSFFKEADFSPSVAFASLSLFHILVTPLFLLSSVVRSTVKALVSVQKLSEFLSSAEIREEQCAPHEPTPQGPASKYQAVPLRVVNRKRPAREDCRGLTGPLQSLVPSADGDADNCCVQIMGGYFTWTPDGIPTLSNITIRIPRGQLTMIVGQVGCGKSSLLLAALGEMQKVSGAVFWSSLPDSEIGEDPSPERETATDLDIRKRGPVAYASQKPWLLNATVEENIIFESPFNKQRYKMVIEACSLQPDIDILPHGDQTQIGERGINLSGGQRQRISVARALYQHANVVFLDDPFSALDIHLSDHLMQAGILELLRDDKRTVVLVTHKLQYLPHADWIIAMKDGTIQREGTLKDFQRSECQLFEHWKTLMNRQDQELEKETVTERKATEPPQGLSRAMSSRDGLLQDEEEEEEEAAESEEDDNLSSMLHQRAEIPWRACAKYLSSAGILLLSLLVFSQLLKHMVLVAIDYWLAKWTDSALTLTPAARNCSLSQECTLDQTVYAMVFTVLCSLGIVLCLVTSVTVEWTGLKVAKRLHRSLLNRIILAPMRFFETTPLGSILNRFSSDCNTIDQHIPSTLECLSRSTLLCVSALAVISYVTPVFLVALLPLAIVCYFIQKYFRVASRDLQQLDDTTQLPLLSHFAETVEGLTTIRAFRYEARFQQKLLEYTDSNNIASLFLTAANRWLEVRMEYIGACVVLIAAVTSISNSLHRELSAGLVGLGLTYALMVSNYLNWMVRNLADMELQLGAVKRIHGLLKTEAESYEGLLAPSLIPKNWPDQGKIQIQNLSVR
T3 sequence (Q14654 1-390): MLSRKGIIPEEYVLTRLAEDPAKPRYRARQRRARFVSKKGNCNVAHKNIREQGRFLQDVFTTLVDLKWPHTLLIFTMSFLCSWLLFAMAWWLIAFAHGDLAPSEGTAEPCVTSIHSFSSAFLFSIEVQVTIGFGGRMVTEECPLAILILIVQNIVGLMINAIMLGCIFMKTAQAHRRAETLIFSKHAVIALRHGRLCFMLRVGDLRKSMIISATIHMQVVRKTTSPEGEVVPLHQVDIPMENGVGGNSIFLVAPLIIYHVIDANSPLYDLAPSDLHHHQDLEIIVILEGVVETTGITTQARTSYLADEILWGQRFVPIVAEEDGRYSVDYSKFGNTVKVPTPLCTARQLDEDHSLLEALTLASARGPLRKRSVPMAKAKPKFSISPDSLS
Method: as §1

T1 sequence (Q09428 whole entry, stated change not applied): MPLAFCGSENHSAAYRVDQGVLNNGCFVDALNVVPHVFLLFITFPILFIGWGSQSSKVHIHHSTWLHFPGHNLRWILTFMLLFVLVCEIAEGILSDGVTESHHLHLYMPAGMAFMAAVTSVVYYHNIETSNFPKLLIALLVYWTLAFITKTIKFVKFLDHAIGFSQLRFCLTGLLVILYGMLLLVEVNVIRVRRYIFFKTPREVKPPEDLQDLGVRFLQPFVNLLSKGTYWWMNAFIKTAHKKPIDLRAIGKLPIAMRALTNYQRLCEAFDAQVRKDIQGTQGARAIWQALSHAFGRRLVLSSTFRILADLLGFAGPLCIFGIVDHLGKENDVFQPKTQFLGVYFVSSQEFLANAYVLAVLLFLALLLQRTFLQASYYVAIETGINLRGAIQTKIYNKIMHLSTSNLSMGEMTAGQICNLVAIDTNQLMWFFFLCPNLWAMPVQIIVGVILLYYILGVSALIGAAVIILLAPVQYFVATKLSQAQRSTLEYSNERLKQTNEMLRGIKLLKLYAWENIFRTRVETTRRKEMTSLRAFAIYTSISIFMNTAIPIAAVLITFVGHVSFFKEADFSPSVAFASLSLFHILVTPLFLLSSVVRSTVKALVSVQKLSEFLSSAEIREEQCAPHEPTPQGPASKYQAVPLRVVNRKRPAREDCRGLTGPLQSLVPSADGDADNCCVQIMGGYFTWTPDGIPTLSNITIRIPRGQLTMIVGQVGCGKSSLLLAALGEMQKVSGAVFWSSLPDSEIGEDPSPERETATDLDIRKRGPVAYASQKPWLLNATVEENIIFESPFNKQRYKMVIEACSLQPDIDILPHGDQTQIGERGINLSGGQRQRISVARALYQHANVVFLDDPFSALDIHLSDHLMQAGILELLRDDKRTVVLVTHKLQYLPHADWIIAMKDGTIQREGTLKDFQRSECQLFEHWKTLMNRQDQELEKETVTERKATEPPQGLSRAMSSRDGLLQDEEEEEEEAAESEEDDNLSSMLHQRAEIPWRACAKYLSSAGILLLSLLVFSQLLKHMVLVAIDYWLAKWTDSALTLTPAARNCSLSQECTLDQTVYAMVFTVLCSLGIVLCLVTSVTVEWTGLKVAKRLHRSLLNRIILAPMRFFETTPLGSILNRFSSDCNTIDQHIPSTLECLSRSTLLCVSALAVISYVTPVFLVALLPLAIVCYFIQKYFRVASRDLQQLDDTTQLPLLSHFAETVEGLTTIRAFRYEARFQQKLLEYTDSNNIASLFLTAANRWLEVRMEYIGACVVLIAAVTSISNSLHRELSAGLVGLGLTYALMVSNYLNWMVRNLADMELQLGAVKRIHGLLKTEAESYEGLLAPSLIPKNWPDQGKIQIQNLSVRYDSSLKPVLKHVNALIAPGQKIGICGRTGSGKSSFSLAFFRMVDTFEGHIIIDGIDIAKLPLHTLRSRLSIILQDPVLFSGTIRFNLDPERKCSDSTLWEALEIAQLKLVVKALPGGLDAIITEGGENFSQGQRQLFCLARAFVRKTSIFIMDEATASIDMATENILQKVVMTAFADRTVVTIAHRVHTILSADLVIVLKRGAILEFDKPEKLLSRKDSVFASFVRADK
T1 sequence (Q14654 whole entry G334D partner): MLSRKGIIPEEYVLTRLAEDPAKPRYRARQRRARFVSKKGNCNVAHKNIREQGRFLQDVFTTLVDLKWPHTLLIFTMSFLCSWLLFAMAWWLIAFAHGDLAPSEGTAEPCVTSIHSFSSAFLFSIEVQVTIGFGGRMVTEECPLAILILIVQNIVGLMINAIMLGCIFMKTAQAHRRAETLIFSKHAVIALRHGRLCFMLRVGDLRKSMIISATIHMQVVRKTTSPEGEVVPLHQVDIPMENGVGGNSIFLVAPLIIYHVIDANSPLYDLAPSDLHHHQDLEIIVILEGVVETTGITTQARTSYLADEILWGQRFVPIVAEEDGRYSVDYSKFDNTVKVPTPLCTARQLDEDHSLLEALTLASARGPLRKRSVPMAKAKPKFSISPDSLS
T2 sequence (Q09428 with tags, fused parts or gaps INS1042[withheld], one chain of several): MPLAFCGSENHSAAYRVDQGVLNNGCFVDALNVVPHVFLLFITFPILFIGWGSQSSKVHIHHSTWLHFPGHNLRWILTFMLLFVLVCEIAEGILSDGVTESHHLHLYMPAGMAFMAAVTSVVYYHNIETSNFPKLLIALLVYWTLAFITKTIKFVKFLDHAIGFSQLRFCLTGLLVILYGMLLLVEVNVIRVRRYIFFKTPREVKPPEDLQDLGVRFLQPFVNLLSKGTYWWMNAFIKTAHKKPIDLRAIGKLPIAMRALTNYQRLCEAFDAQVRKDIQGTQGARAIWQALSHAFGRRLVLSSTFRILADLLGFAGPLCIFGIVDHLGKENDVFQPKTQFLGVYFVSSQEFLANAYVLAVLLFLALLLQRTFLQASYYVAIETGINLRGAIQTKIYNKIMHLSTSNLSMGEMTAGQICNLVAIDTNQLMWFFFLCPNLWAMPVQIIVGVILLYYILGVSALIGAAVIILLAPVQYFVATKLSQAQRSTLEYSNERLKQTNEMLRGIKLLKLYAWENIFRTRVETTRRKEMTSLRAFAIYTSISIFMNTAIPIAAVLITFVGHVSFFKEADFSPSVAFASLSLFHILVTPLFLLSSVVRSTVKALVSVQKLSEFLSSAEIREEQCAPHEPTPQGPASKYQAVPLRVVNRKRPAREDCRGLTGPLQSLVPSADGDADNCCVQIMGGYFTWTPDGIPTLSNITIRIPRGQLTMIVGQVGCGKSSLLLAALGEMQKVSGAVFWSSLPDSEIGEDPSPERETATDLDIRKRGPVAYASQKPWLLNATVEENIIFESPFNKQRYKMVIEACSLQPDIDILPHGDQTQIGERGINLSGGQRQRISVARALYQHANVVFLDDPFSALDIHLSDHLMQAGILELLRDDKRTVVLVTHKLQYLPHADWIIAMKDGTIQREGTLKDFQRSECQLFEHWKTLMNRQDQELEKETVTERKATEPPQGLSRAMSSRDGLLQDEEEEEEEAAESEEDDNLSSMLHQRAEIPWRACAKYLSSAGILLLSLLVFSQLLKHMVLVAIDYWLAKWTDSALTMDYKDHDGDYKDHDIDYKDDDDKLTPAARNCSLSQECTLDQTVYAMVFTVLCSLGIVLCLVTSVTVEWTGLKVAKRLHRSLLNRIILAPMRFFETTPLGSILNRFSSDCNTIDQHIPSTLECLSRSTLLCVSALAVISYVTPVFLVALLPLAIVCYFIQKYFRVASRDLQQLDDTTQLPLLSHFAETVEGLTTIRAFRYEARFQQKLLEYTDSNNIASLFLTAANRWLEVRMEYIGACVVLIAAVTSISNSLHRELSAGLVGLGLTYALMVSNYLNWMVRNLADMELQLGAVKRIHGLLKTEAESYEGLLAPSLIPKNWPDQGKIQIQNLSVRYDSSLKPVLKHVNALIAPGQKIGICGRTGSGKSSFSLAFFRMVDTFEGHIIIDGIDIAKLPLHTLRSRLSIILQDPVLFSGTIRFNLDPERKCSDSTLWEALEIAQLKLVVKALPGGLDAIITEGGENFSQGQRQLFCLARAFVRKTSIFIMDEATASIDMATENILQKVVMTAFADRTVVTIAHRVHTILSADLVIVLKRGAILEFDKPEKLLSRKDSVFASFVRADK

For `Nc1ncnc2c1ncn2[C@@H]1O[C@H](COP(=O)([O-])OP(=O)([O-])O)[C@@H](O)[C@H]1O.[Mg+2]` [MgADP], the effect on currents [1] is given as “activated”, the EC50 [2] is given as 7.7 µM and the effect on currents [3] is given as “no activation”. The “shift of concentration dependence of activation to higher concentrations by K2A mutation” value [4] was > 20 fold, the “increase of current over nucleotide-free control” value [5] was 3.6 fold and the inhibition of current [6] was 59%.
